Tested on: MTOR
Test: RT-qPCR of MTOR expression after miRNA mimic transfection
Assay type: cell-based, human
Conditions: African American and European American prostate cancer cells; vs nonsense/scrambled (NS) miRNA control
Description: […] RC77 T/E, a primary prostate cancer cell line derived from a patient, was kindly provided by Dr. Johng Rhim at Center for Prostate Disease Research (CPDR) in Rockville, MD. LNCaP and PC-3 were served as prostate cancer cell line models, and RC77 T/E and MDA PCa 2b were served as prostate cancer cell models in the study. The cells were cultured in specific cell culture media, LNCaP was cultured in RPMI with 10% fetal bovine serum (FBS), PC-3 was cultured in DMEM with 10% FBS, MDA PCa 2b were cultured in BRFF-HPC1 with 20% FBS and RC77 T/E was cultured in Keratinocyte SFM with Human Recombinant Epidermal Growth Factor (EGF 1-53) and Bovine Pituitary Extract (BPE). Cells were maintained at 37° C. in a 5% CO2 incubator. LNCaP, PC-3 and MDA PCa 2b cells were seeded at density 3×10^4 cells/well in 6-well plates. RC77 T/E cells were seeded at density 5×10^4 cells/well in 6-well plates. […]
For the measurement of gene expression level, total RNA was isolated using miRNeasy Mini Kit (50) (Qiagen) from the prostate cancer cells used in the study. Quantification of total RNA samples were done using NanoVue Plus spectrophotometer (GE Healthcare). […] Reverse transcription was performed using iScript Reverse Transcription Supermix kit (Bio-Rad) to generate cDNA then followed by performing quantitative PCR (qPCR) assays using SsoAdvanced Universal SYBR Green supermix kit (Bio-Rad). […]

miR-99b-5p mimic: miRNA mimic of miR-99b-5p (SEQ ID NO: 2, CACCCGUAGAACCGACCUUGCG), purchased from Ambion (listed as RNA, chemistry not given here; listed as Homo sapiens)
MTOR expression (RT-qPCR): decreased
